Like-named read-outs stand apart in the source and are kept apart here.

The target in one assay is T1, BTK (Homo sapiens, UniProt Q06187).
T1 construct: purchased Upstate 14-552
As to the kind of experiment: In Vitro BTK Kinase Assay: Btk-PolyGAT-LS Assay. The format is biochemical. Conditions: active BTK enzyme 0.25 nM, polyGAT 100 nM, 30 minutes, TRF readout; read-out: In Vitro BTK Kinase Assay IC50 Score. Summed up: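 Active BTK at 0.25 nM phosphorylated 100 nM fluorescein-polyGAT peptide at 10 μM ATP for 30 minutes. Buffer was Tris pH 7.5 with MgCl2, DTT, Triton X-100 and casein, and reactions were stopped with EDTA. Phospho-peptide was detected by Tb-PY20 antibody TR-FRET, and IC50 came from a four-parameter fit normalized to DMSO and EDTA controls.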

For assay [1], the system named is CD69 expression on CD19+ B cells in human whole blood. Nature of the assay: In Vitro whole blood CD69 Assay. The note with it: B-cell, read-out: In Vitro HWB CD69 Assay IC50 Score. The format is cell-based. Summed up:
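Heparinized healthy-donor human whole blood was preincubated with compound (0.1% DMSO) for 30 min at 37 °C. Stimulation used 0.1 µg/mL anti-IgD-dextran or 20 µg/mL rabbit F(ab′)2 anti-IgD for 18–22 h at 37 °C. CD69 on gated CD19+ B cells was then measured by flow cytometry.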

Setting [2] is: human heparinized whole blood, anti-human IgD stimulation overnight, CD19+ B cells, flow cytometry.

T1 sequence (Q06187 whole entry): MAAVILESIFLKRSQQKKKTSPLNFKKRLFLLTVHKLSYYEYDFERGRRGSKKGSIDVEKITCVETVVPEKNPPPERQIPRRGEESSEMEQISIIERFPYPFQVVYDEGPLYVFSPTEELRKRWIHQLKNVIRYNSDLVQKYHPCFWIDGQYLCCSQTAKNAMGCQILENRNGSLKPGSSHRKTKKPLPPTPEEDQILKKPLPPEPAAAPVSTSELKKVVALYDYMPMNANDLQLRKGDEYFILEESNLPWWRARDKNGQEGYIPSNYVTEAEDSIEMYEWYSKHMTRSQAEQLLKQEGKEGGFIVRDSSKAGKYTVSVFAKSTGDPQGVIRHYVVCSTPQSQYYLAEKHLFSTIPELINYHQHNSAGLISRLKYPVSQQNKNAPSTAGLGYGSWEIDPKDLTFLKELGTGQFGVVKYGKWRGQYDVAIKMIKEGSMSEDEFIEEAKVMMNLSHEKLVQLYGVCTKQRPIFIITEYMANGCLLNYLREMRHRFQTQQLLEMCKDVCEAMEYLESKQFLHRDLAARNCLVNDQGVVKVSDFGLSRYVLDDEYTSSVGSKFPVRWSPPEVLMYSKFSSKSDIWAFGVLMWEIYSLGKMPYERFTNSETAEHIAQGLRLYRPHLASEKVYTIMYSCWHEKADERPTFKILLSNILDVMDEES

Turning to `CC(C)(C)n1nnc(C(=O)NCc2ccc(-c3nc(N4CCOCC4)cn4nccc34)cc2)n1` [Example 25, 2-(tert-butyl)-N-(4-(6-morpholinopyrazolo[1,5-a]pyrazin-4-yl)benzyl)-2H-tetrazole-5-carboxamide], the IC50 fell in the range of 10 to 1000 nM on BTK and 1000 to 10000 nM in assay [1] (setting [2]).

Turning to `Cn1cc(-c2cn3nccc3c(-c3ccc(CNC(=O)c4nc(C(C)(C)C)no4)c(F)c3F)n2)cn1` [Example 89, 3-(tert-butyl)-N-(2,3-difluoro-4-(6-(1-methyl-1H-pyrazol-4-yl)pyrazolo[1,5-a]pyrazin-4-yl)benzyl)-1,2,4-oxadiazole-5-carboxamide], the IC50 at BTK is less than 1 nM; in assay [1] (Homo sapiens), less than 1000 nM.

Turning to `Cn1cc(-c2cn3nccc3c(-c3cc(F)c(CNC(=O)c4cn(C(C)(C)C)nn4)cc3F)n2)cn1` [Example 98, 1-(tert-butyl)-N-(2,5-difluoro-4-(6-(1-methyl-1H-pyrazol-4-yl)pyrazolo[1,5-a]pyrazin-4-yl)benzyl)-1H-1,2,3-triazole-4-carboxamide], the values for the IC50 (at BTK; in assay [1] (setting [2])) were 1 to 10 nM and 1000 to 10000 nM, respectively.

In the case of `Cn1cc(-c2cc(-c3ccc(CNC(=O)c4noc(C5(C)CC5)n4)c(F)c3)c3ccnn3c2)cn1` [Example 67, N-(2-fluoro-4-(6-(1-methyl-1H-pyrazol-4-yl)pyrazolo[1,5-a]pyridin-4-yl)benzyl)-5-(1-methylcyclopropyl)-1,2,4-oxadiazole-3-carboxamide], the half-maximal inhibitory concentration (IC50) at BTK is less than 1 nM; in assay [1] (Homo sapiens), less than 1000 nM.

Regarding `Cn1cc(-c2cn3nccc3c(N3CCC(C)(CNC(=O)c4noc(C5(C)CC5)n4)CC3)n2)cn1` [Example 46, N-((4-methyl-1-(6-(1-methyl-1H-pyrazol-4-yl)pyrazolo[1,5-a]pyrazin-4-yl)piperidin-4-yl)methyl)-5-(1-methylcyclopropyl)-1,2,4-oxadiazole-3-carboxamide], the results for the IC50 (at BTK; in assay [1] (setting [2])) were 10 to 1000 nM and 1000 to 10000 nM, respectively.

Consider `Cn1cc(-c2cn3nccc3c(-c3ccc(CNC(=O)c4nc(C(C)(C)CF)no4)c(F)c3)n2)cn1` [Example 13, 3-(1-fluoro-2-methylpropan-2-yl)-N-(2-fluoro-4-(6-(1-methyl-1H-pyrazol-4-yl)pyrazolo[1,5-a]pyrazin-4-yl)benzyl)-1,2,4-oxadiazole-5-carboxamide], for which the IC50 on BTK is less than 1 nM; in assay [1] (setting [2]) it was less than 1000 nM.

For the compound `Cn1cc(-c2cn3nccc3c(-c3ccc(CNC(=O)c4nnn(C(C)(C)C)n4)c(F)c3)n2)cn1` [Example 7, 2-(tert-butyl)-N-(2-fluoro-4-(6-(1-methyl-1H-pyrazol-4-yl)pyrazolo[1,5-a]pyrazin-4-yl)benzyl)-2H-tetrazole-5-carboxamide], the IC50 on BTK was less than 1 nM; in assay [1] (setting [2]), less than 1000 nM.

For the compound `C[C@@H]1CN(c2nc(-c3cnn(C)c3)cn3nccc23)CC[C@@H]1CNC(=O)c1noc(C2(C)CC2)n1` (single isomer, unassigned) [Example 146], the results for the IC50 (at BTK; in assay [1] (setting [2])) were 1 to 10 nM and 1000 to 10000 nM, respectively.

Regarding `Cn1cc(-c2cn3nccc3c(N3CCC(C)(CNC(=O)c4noc(C(C)(C)C)n4)CC3)n2)cn1` [Example 41, 5-(tert-butyl)-N-((4-methyl-1-(6-(1-methyl-1H-pyrazol-4-yl)pyrazolo[1,5-a]pyrazin-4-yl)piperidin-4-yl)methyl)-1,2,4-oxadiazole-3-carboxamide], the IC50 at BTK was 1 to 10 nM; in assay [1] (setting [2]), 1000 to 10000 nM.

Take `Cn1cc(-c2cn3nccc3c(-c3ccc(CNC(=O)c4nnn(C(C)(C)C)n4)c(F)c3F)n2)cn1` [Example 87, 2-(tert-butyl)-N-(2,3-difluoro-4-(6-(1-methyl-1H-pyrazol-4-yl)pyrazolo[1,5-a]pyrazin-4-yl)benzyl)-2H-tetrazole-5-carboxamide]: the IC50 at BTK was less than 1 nM; in assay [1] (setting [2]) it was less than 1000 nM.

What is called IC50 is the concentration needed to halve the response being measured.

The values are drawn from patent US20250034150A1, “BTK INHIBITORS” (BIOGEN MA INC., priority 2021, published 2025).
